As a reminder, the Km is the substrate concentration at which the rate is half of its maximum.

In the assay the target is T1, ASCT2 (alanine serine cysteine transporter 2) (Rattus norvegicus, UniProt D3ZJ25).
T1 sequence (D3ZJ25 1-555): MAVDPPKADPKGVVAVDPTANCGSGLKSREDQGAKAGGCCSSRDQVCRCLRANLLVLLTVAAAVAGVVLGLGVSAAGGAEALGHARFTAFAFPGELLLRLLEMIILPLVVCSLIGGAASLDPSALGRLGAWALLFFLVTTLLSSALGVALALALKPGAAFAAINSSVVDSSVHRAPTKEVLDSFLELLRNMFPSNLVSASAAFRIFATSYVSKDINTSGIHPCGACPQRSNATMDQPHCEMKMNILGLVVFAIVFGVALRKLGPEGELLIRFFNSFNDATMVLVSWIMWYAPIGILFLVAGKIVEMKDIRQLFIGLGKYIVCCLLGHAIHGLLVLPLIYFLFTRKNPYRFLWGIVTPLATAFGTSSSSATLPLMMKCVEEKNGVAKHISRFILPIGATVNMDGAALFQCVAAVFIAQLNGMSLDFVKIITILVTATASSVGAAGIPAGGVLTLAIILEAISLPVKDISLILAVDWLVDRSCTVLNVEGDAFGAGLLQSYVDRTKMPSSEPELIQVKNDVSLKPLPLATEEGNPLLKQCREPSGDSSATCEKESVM
The experiment in a line: whole-cell voltage clamp: alanine-induced anion currents. The format is cell-based.

Each structure is given as a SMILES string.

As to `C[C@H](N)C(=O)O` [alanine], the Michaelis constant (Km) is 160 ± 50 µM.

These data come from PMC3664696 (The Journal of General Physiology, 2013).
